Data set [1] can be described thus: Metabolic stability in human liver microsomes. The format is in vitro ADME. The conditions noted are these: 0.5 μM test substance, NADPH, 37° C., scaled microsomal clearance, examples marked * tested as fumarate salts. The procedure: Metabolic stability was determined as follows:
0.5 μM test substance was preincubated together with human liver microsomes (0.25 mg of microsomal protein/[…]) in 0.05 M potassium phosphate buffer of pH 7.4 in microtiter plates at 37° C. for 5 min. The reaction was started by adding NADPH (1.0 mM). After 0, 5, 10, 15, 20 and 30 min the reaction was stopped and cooled with twice the amount of quench solution consisting of acetonitrile/methanol 1:1, and containing 0.2 μM carbutamide. The samples were frozen until analyzed. The remaining concentration of undegraded test substance was determined by LC MSMS. The half-life (T1/2) was determined from the gradient of the signal of test substance/unit time plot, al-lowing to calculate the half-life of the test substance, assuming first order kinetics, from the de-crease in the concentration of the compound with time. The microsomal clearance (mClint) was calculated as follows: mClint=((ln(2)/t1/2)/Microsomal Protein Concentration (mg/ml))*1000, leading to the unit of uL/min/mg. The scaled clearance (mClin_scaled) was calculated as mCLint_scaled=m CLint*(Microsomal Yield (mg/kg BW))/1000000*60, leading to the units L/hr/kg. The Microsomal Yield is defined by the specifics of the used microsomes. Calculations were modified from references: Di, The Society for Biomolecular Screening, 2003, 453-462; Obach, DMD, 1999 vol 27. N 11, 1350-1359.
Background: Microsomes from liver hold many membrane-bound enzymes, among them those of drug oxidation.

The next data set addresses human GlyT1c transporter (Homo sapiens (Human), UniProt P48067). In words: Radioligand binding assay using recombinant CHO cell membranes expressing human GlyT1. Particulars: examples marked * tested as fumarate salts, read-out: radioligand binding Kiapp.

Chain of human GlyT1c transporter (P48067 whole entry): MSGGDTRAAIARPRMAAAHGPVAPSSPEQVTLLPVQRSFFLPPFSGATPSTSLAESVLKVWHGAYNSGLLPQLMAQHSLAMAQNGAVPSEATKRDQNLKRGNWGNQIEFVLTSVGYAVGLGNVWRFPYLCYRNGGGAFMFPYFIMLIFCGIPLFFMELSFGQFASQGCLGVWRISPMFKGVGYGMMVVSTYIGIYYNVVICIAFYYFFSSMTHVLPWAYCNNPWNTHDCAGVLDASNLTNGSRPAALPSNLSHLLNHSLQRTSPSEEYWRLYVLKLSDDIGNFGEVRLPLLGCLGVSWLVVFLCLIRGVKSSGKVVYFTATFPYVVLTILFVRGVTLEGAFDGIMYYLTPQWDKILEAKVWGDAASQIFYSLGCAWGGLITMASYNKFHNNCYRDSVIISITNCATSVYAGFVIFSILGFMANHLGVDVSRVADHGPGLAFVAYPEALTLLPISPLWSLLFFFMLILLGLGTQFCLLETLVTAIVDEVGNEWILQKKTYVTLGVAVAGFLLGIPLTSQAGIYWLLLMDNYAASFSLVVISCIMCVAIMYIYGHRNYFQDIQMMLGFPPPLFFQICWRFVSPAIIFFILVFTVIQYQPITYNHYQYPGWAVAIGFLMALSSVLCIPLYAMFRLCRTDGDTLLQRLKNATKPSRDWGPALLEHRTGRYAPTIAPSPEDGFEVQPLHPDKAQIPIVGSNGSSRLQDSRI

With `Cn1cc(S(=O)(=O)NC2CN(c3ccc4c(c3)[C@H](Cc3ccccc3)[C@H](N3CCC3)CO4)C2)nn1` (relative stereo) [Example 6, Cis-N-(1-(3-(azetidin-1-yl)-4-benzylchroman-6-yl)azetidin-3-yl)-1-methyl-1H-1,2,3-triazole-4-sulfonamide], in data set [1], the “human mCl” value is reported as “≦5 L/h/Kg”. Besides, the Ki on human GlyT1c transporter is no more than 10 nM.

`CCCS(=O)(=O)NC1CN(c2ccc3c(c2)C(Cc2ccccc2)C(NC)CO3)C1` (racemic) [Example 11, Cis-N-(1-(4-benzyl-3-(methylamino)chroman-6-yl)azetidin-3-yl)propane-1-sulfonamide]: in data set [1], the “human mCl” value is “≦5 L/h/Kg”. The Ki at human GlyT1c transporter was no more than 10 nM.

Take `O=S(=O)(NC1CN(c2cc3c(cc2F)OC[C@@H](N2CCC2)[C@H]3Cc2ccccc2)C1)c1cncc(F)c1` (relative stereo) [Example 26, Cis-1-(4-benzyl-7-fluoro-6-(3-(5-fluoropyridine-3-sulfonamido)azetidin-1-yl)chroman-3-yl)azetidin-1-ium (E)-3-carboxyacrylate]: the “human mCl” value in data set [1] is given as “≦50 L/h/Kg”. In addition, the Ki at human GlyT1c transporter is no more than 100 nM.

`Cn1cc(S(=O)(=O)NC2CN(c3ccc4c(c3)[C@H](Cc3ccccc3)[C@H](N3CCC3)CO4)C2)cn1` (relative stereo) [Example 5, Cis-N-(1-(3-(azetidin-1-yl)-4-benzylchroman-6-yl)azetidin-3-yl)-1-methyl-1H-pyrazole-4-sulfonamide]: the “human mCl” value in data set [1] is listed as “≦5 L/h/Kg”. In addition, the Ki on human GlyT1c transporter was no more than 100 nM.

These data come from patent US9586945B2, “Aminochromane, aminothiochromane and amino-1,2,3,4-tetrahydroquinoline derivatives, pharmaceutical compositions containing them, and their use in therapy” (AbbVie Deutschland GmbH & Co. KG, priority 2013, dated 2017).
